Data taken from PubChem BioAssay (NCI).
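Compound exposure: 48 hours, 5 concentrations, 96-well plates. TGI: total growth inhibition.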

What was measured:
Experiment in all cases: NCI tumour cell line growth inhibition, 48 h
[1] = test system: SNB-78 CNS
[2] = test system: ACHN renal
[3] = test system: SNB-19 CNS
[4] = test system: NCI-H226 lung
[5] = test system: RPMI-8226 leukemia
[6] = test system: HOP-62 NSCLC
[7] = test system: OVCAR-5 ovarian
[8] = test system: 786-0 renal
[9] = test system: CCRF-CEM leukemia
[10] = test system: SF-295 CNS
[11] = test system: HCC-2998 colon
[12] = test system: M19-MEL melanoma
[13] = test system: NCI-H23 lung
[14] = test system: A498 renal
[15] = test system: SK-MEL-28 melanoma
[16] = test system: HCT-116 colon
[17] = test system: UACC-62 melanoma
[18] = test system: OVCAR-8 ovarian
[19] = test system: DMS 114 small cell lung
[20] = test system: RXF 393 renal
[21] = test system: SW-620 colon
[22] = test system: KM12 colon
[23] = test system: SNB-75 CNS
[24] = test system: DLD-1 colon
[25] = test system: SF-539 CNS
[26] = test system: UACC-257 melanoma
[27] = test system: IGROV1 ovarian
[28] = test system: HL-60(TB) leukemia
[29] = test system: U251 CNS
[30] = test system: LXFL 529 NSCLC
[31] = test system: HOP-18 NSCLC
[32] = test system: SN12C renal
[33] = test system: MALME-3M melanoma
[34] = test system: SF-268 CNS
[35] = test system: EKVX NSCLC
[36] = test system: NCI-H460 lung
[37] = test system: A549 NSCLC
[38] = test system: SK-MEL-5 melanoma
[39] = test system: COLO 205 colon
[40] = test system: KM20L2 colon
[41] = test system: HOP-92 NSCLC
[42] = test system: K-562 leukemia
[43] = test system: SK-OV-3 ovarian
[44] = test system: LOX IMVI melanoma
[45] = test system: SK-MEL-2 melanoma
[46] = test system: NCI-H522 lung
[47] = test system: MOLT-4 leukemia
[48] = test system: RXF-631 renal
[49] = test system: UO-31 renal
[50] = test system: CAKI-1 renal
[51] = test system: XF 498 CNS
[52] = test system: M14 melanoma
[53] = test system: OVCAR-3 ovarian
[54] = test system: TK-10 renal
[55] = test system: OVCAR-4 ovarian
[56] = test system: DMS 273 small cell lung
[57] = test system: SR leukemia
[58] = test system: HCT-15 colon
[59] = test system: HT29 colon

Cc1ccc(S(=O)(=O)NC(=O)Nc2nc(Cl)cc(Cl)n2)cc1
TGI [1]: > 100 µM
TGI [2]: > 100 µM
TGI [3]: > 100 µM
TGI [4]: > 100 µM
TGI [5]: > 100 µM
TGI [6]: > 100 µM
TGI [7]: > 100 µM
TGI [8]: > 100 µM
TGI [9]: > 100 µM
TGI [10]: > 100 µM
TGI [11]: > 100 µM
TGI [12]: > 100 µM
TGI [13]: > 100 µM
TGI [14]: > 100 µM
TGI [15]: > 100 µM
TGI [16]: > 100 µM
TGI [17]: > 100 µM
TGI [18]: > 100 µM
TGI [19]: > 100 µM
TGI [20]: > 100 µM
TGI [21]: > 100 µM
TGI [22]: > 100 µM
TGI [23]: > 100 µM
TGI [24]: > 100 µM
TGI [25]: > 100 µM
TGI [26]: > 100 µM
TGI [27]: > 100 µM
TGI [28]: > 100 µM
TGI [29]: > 100 µM
TGI [30]: > 100 µM
TGI [31]: > 100 µM
TGI [32]: > 100 µM
TGI [33]: > 100 µM
TGI [34]: > 100 µM
TGI [35]: > 100 µM
TGI [36]: > 100 µM
TGI [37]: > 100 µM
TGI [38]: > 100 µM
TGI [39]: > 100 µM
TGI [40]: > 100 µM
TGI [41]: > 100 µM
TGI [42]: > 100 µM
TGI [43]: > 100 µM
TGI [44]: > 100 µM
TGI [45]: > 100 µM
TGI [46]: 23.9 µM
TGI [47]: > 100 µM
TGI [48]: > 100 µM
TGI [49]: > 100 µM
TGI [50]: > 100 µM
TGI [51]: > 100 µM
TGI [52]: > 100 µM
TGI [53]: > 100 µM
TGI [54]: > 100 µM
TGI [55]: > 100 µM

Cc1ccccc1C(C#N)/C(=N/NC(=O)C(=O)NN)C(=O)Nc1cccc(C(F)(F)F)c1 (centres undefined)
TGI [1]: > 100 µM
TGI [2]: > 100 µM
TGI [3]: > 100 µM
TGI [4]: > 100 µM
TGI [5]: > 100 µM
TGI [6]: > 100 µM
TGI [7]: > 100 µM
TGI [8]: > 100 µM
TGI [9]: > 100 µM
TGI [10]: > 100 µM
TGI [56]: > 100 µM
TGI [11]: > 100 µM
TGI [12]: > 100 µM
TGI [13]: > 100 µM
TGI [14]: > 100 µM
TGI [57]: > 100 µM
TGI [15]: > 100 µM
TGI [16]: > 100 µM
TGI [17]: > 100 µM
TGI [18]: > 100 µM
TGI [19]: > 100 µM
TGI [21]: > 100 µM
TGI [22]: > 100 µM
TGI [23]: > 100 µM
TGI [24]: > 100 µM
TGI [25]: > 100 µM
TGI [26]: > 100 µM
TGI [27]: > 100 µM
TGI [28]: > 100 µM
TGI [29]: > 100 µM
TGI [30]: > 100 µM
TGI [31]: > 100 µM
TGI [32]: > 100 µM
TGI [33]: > 100 µM
TGI [34]: > 100 µM
TGI [35]: > 100 µM
TGI [36]: > 100 µM
TGI [37]: > 100 µM
TGI [38]: > 100 µM
TGI [39]: > 100 µM
TGI [40]: > 100 µM
TGI [41]: > 100 µM
TGI [42]: > 100 µM
TGI [45]: > 100 µM
TGI [46]: > 100 µM
TGI [47]: > 100 µM
TGI [48]: > 100 µM
TGI [49]: > 100 µM
TGI [50]: > 100 µM
TGI [58]: > 100 µM
TGI [52]: > 100 µM
TGI [53]: > 100 µM
TGI [54]: > 100 µM
TGI [59]: > 100 µM
TGI [55]: > 100 µM

COC1=CC(=O)C2[C@H]3Cc4ccccc4[C@H]3C2(C)C1=O (some centres undefined)
TGI [1]: > 100 µM
TGI [2]: > 100 µM
TGI [3]: > 100 µM
TGI [4]: > 100 µM
TGI [5]: > 100 µM
TGI [6]: > 100 µM
TGI [7]: > 100 µM
TGI [8]: > 100 µM
TGI [9]: > 100 µM
TGI [10]: > 100 µM
TGI [56]: > 100 µM
TGI [11]: > 100 µM
TGI [12]: > 100 µM
TGI [13]: > 100 µM
TGI [14]: > 100 µM
TGI [57]: > 100 µM
TGI [15]: > 100 µM
TGI [17]: > 100 µM
TGI [18]: > 100 µM
TGI [20]: > 100 µM
TGI [21]: > 100 µM
TGI [22]: > 100 µM
TGI [23]: > 100 µM
TGI [24]: > 100 µM
TGI [25]: > 100 µM
TGI [26]: > 100 µM
TGI [27]: > 100 µM
TGI [29]: > 100 µM
TGI [30]: > 100 µM
TGI [33]: > 100 µM
TGI [34]: > 100 µM
TGI [35]: > 100 µM
TGI [36]: > 100 µM
TGI [37]: > 100 µM
TGI [38]: > 100 µM
TGI [39]: > 100 µM
TGI [40]: > 100 µM
TGI [41]: > 100 µM
TGI [42]: > 100 µM
TGI [43]: > 100 µM
TGI [44]: > 100 µM
TGI [45]: > 100 µM
TGI [46]: > 100 µM
TGI [47]: > 100 µM
TGI [48]: > 100 µM
TGI [49]: > 100 µM
TGI [50]: > 100 µM
TGI [58]: > 100 µM
TGI [51]: > 100 µM
TGI [52]: > 100 µM
TGI [53]: > 100 µM
TGI [54]: > 100 µM
TGI [59]: > 100 µM
TGI [55]: > 100 µM
